Measured values: a melting point compilation (Tetko et al.; mined from patent text by program, amines drawn as free bases though some values may be those of a salt)

| Structure (SMILES) | melting point [°C] |
| --- | --- |
| CSC(=S)N1CCN(Cc2cc(OC(C)=O)c(OC(C)=O)c(OC(C)=O)c2)CC1 | 141 to 143 |
| O=S(=O)(c1ccc(Cl)cc1)N1CCCC1c1ccccc1F (racemic) | 134 |
| Cc1cc(N2C(=O)c3ccccc3C2=O)c(C)cc1N=CN(C)C | 170 to 173 |
| CCc1[nH]n(-c2c(Cl)cc(Cl)cc2Cl)c2nc(Cc3cccnc3)nc(=O)c1-2 | 257 to 260 |
| CC1(C)Cc2sccc2C1N (centres undefined) | 80 |
| CC(=O)OCC1OC(N=[N+]=[N-])C(OC(C)=O)C(OC(C)=O)C1OC(C)=O (centres undefined) | 52 to 53 |
| CON1CCC2(CC1)C(O)=C(c1c(C)cc(C)cc1C)C(=O)N2OC1CCCCC1 | 115 to 118 |
| Cc1oc2c(-n3c(=O)cc(C(F)(F)F)n(C)c3=O)ccc(Cl)c2c1NO | 134 to 136 |
| CCOC(=O)C=Cc1cc(C=CC(=O)OCC)cc(Cc2cccnc2)c1 | 94 to 96 |
| CC(C)(C)OC(=O)C(CN)CC(=O)N1CCNCC1 (centres undefined) | 142 |
| CCCN(CCC)C1Cc2cc3c(cc2C1)C(=O)N(Cc1ccc(C#N)cc1)C3 (centres undefined) | 141 to 145 |
| CCn1c(=O)n(O)c(=O)c2cc(F)c(F)cc21 | 172 to 174 |
| CC(C)CNC1=NS(=O)(=O)c2sc(Cl)cc2N1 | 262 to 264 |
| CN1CCC23c4c5ccc(OCCCN)c4OC2C(O)C=CC3C1C5 (centres undefined) | 132 to 134 |
| CCOC(c1cccc2cccnc12)n1c(NC2CCN(C(CN)C(C)C)CC2)nc2ccccc21 (centres undefined) | 202 |
| COc1ccc(-c2nc(C)c([N+](=O)[O-])[nH]2)cc1 | 198 to 204 |
| Nc1cc(-c2ccccc2)ccc1Cl | 91 to 92.5 |

Next, values leading:

| melting point [°C] | Structure (SMILES) |
| --- | --- |
| 156 | CCCOC(=O)C1=C(C)NC(C)=C(C(=O)OCC)C1c1ccccc1C#N (centres undefined) |
| 118 to 124 | CCOc1ccccc1OCCNC(C)Cc1ccc(OC)c(S(N)(=O)=O)c1 (centres undefined) |
| 101 to 102 | CCCC[C@H](NC(=O)[C@H](CC(C)C)NC(=O)c1ccc(F)c(F)c1F)C(=O)CSCc1ccco1 |
| 177 to 179 | CC(C(=O)O)c1ccc2oc(-c3ccccc3)nc2c1 (centres undefined) |
| 121 to 123 | CCOC(=O)CCc1cccc(-c2c(CC(=O)Nc3ccc(F)cc3C(F)(F)F)c(=O)oc3cc(Cl)c(C)cc23)c1 |
| 153 to 156 | O=C(O)c1ccc(OCC2CCCC2Nc2ccc(Cl)cc2)cc1 (centres undefined) |
| 106 to 109 | CC(C)(C)c1cc(CCc2ccccc2NC(=O)NC2CCN(Cc3ccccn3)CC2)cc(C(C)(C)C)c1O |
| 125 to 126 | CCC(C(=O)O)C1=NC(c2ccccc2)(c2ccccc2)CO1 (centres undefined) |
| 196 to 197 | CC(C)(C)OC(=O)/C=C/c1ccnc(-c2nc(=O)c3ccccc3s2)c1 |
| 242 to 244 | O=C(O)/C=C/c1c[nH]c2ccccc2c1=O |
| 150 to 152 | Fc1ccc2c(CN3CC=C(CCc4ccccc4)CC3)c[nH]c2c1 |
| 143 | Cc1c(C(C)CC(=O)O)n(Cc2ccc(Cl)cc2)c2ccc(F)cc12 (centres undefined) |
| 173 | Cn1c(CNCC(C)(C)C)cc2cc(NC(=O)c3ccc(C#CC4(O)CC4)cc3)ccc21 |
| 68 to 69 | CC(C)(C)c1cc(CNc2cccc(Br)c2CO)c(C(=O)O)s1 |
| 299 to 301 | Cc1c(C(=O)O)oc2c(c1=O)CSc1ccccc1-2 |
| 176 to 178 | CC(=O)N=C(O)c1cc(C(O)=NCCOC(C)=O)c(C(=O)O)cc1C(=O)O |
| 185 to 188 | O=C(O)C1=Cc2cc(Cl)c(-c3ccccc3)cc2OC1C(F)(F)F (centres undefined) |
| 173 to 174 | CCOC(=O)c1cc2cc(-c3ccccc3)ccc2[nH]1 |
| 238 to 240 | Cc1cccc(Cl)c1C(=O)N[C@@H](Cc1ccc(-c2c(C)n(C)c(=O)n(C)c2=O)cc1)C(=O)O |
| 266 | O=C(O)c1cn(CCO)c2cc(Cl)c(F)cc2c1=O |
| 189 to 190 | CCCCn1c(O)c(N=Nc2ccc(S(=O)(=O)N(CC(C)O)CC(C)O)cc2)c(C)c(C#N)c1=O (centres undefined) |
| 126 | CC(=O)CNC(=O)Cc1ccccc1 |
